Kd data for 1 compound are collected here from publication PMC12279193 (Advanced Science, 2025).

The target of test [1] is SARS-CoV S-trimer protein (Severe acute respiratory syndrome-related coronavirus, UniProt P59594). The experiment in a line: biochemical. It counts as binding.
In test [2] the target is MERS-CoV S-trimer protein (Betacoronavirus England 1, UniProt K9N5Q8). Kind of test: biochemical. It is filed as binding.
MERS-CoV S-trimer protein, sequence (K9N5Q8 18-1294 limits assumed): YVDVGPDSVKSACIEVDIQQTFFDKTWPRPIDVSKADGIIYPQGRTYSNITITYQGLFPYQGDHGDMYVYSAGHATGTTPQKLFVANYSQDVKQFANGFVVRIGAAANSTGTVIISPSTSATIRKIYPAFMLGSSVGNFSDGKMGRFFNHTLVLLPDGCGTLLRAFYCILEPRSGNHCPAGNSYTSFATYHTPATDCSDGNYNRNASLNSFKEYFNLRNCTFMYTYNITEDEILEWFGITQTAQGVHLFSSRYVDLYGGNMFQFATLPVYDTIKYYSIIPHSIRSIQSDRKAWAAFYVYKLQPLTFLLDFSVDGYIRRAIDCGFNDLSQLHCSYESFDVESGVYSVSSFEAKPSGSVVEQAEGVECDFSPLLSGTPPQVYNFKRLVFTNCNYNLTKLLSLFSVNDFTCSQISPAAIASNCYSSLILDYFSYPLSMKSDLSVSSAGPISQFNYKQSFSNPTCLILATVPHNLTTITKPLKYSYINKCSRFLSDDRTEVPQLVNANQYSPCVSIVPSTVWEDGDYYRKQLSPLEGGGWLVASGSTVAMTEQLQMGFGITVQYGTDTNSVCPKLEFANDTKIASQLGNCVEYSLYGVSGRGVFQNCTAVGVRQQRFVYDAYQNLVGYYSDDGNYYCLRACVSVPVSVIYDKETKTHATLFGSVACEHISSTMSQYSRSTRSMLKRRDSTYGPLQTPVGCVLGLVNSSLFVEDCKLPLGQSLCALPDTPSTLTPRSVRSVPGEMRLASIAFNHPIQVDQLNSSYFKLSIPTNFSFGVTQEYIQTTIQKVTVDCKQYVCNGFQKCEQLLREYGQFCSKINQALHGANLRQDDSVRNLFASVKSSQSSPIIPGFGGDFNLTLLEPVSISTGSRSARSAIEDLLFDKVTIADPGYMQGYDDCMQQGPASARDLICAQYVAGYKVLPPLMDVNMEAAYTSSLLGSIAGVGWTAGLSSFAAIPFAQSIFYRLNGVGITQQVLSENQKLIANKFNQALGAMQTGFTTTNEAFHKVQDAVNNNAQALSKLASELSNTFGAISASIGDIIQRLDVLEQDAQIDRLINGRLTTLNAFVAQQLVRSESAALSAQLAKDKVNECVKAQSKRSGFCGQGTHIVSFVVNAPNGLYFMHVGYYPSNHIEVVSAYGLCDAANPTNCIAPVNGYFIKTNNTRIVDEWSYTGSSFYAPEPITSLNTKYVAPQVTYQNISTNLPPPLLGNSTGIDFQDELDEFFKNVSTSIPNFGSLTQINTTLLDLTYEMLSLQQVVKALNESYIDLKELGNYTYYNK

As to `CN(/N=C/c1ccccc1C(=O)O)c1nc(-c2ccccc2Cl)cs1` [S416], the results for the Kd in test [1] and in test [2] were 27.2 µM and 55.4 µM, respectively.

What is called Kd is the equilibrium constant for the complex coming apart. A low value points to a tighter complex.
